Data from patent US11970497B2, “Tricyclic AKR1C3 dependent KARS inhibitors” (Novartis AG, priority 2019, dated 2024).

Tests used:
[1] = test system: Hara (NRF2 pathway wild type cell line with low AKR1C3 expression); assay: In vitro cell proliferation assay (CellTiter-Glo), Hara; type: cell-based; conditions: 72 h; Hara cells, 3 days, CellTiter-Glo, top concentration 10 μM; read-out: HARA Qualified absolute AC50
Procedure, shortened: (§1)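 Luminescent CellTiter-Glo readout after 3-day compound exposure at 37 °C; 8-point 1:5 series, top 10 μM final. Seeding: 800 cells/well for H460, 2000 cells/well for Hara, RPMI-1640 plus 10% FBS. AC50 and percentage activity derived after normalizing to DMSO (1%) and MG132 (30 μM) controls.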

[2] = test system: H460 (NRF2 pathway mutant cell line with high AKR1C3 expression); assay: In vitro cell proliferation assay (CellTiter-Glo), H460; type: cell-based; conditions: Homo sapiens, NCI-H460, 72 h; H460 cells, 3 days, CellTiter-Glo, top concentration 10 μM; read-out: H460 Qualified absolute AC50
Procedure, shortened: as §1

Row | SMILES | AC50 [1] [µM] | AC50 [2] [µM]
1 | O=C1CC2(CCN(C(=O)NCc3ccc(F)cc3Cl)CC2)Nc2ccc(F)cc21 [Example 68, N-(2-chloro-4-fluorobenzyl)-6′-fluoro-4′-oxo-3′,4′-dihydro-1′H-spiro[piperidine-4,2′-quinoline]-1-carboxamide] | 9.14 | 0.226
2 | Cc1cc(F)cc2c1NC1(CCN(C(=O)NCc3ccc(F)c(C(N)=O)c3)CC1)CC2=O [Example 142, N-(3-carbamoyl-4-fluorobenzyl)-6′-fluoro-8′-methyl-4′-oxo-3′,4′-dihydro-1′H-spiro[piperidine4,2′-quinoline]-1-carboxamide] | > 10 | 2.45
3 | COc1cc(F)ccc1CNC(=O)N1CCC2(CC1)CC(=O)c1cc(F)ccc1N2 [Example 114, 6′-fluoro-N-(4-fluoro-2-methoxybenzyl)-4′-oxo-3′,4′-dihydro-1′H-spiro[piperidine-4,2′-quinoline]-1-carboxamide] | 4.43 | 0.913
4 | [2H]C([2H])(NC(=O)N1CCC2(CC1)CC(=O)c1cc(F)ccc1N2)c1ccc(F)cc1 [Example 12, 6′-fluoro-N-((4-fluorophenyl)methyl-d2)-4′-oxo-3′,4′-dihydro-1′H-spiro[piperidine-4,2′-quinoline]-1-carboxamide] | > 10 | 0.024
5 | CN1c2ccc(F)cc2C(=O)CC12CCN(C(=O)NCc1ccc(F)c(NCCOP(=O)(O)O)c1)CC2 [Example 28] | > 10 | 0.052
6 | COCCNc1cc(F)ccc1CNC(=O)N1CCC2(CC1)CC(=O)c1cc(F)ccc1N2C [Example 20, 6′-fluoro-N-(4-fluoro-2-((2-methoxyethyl)amino)benzyl)-1′-methyl-4′-oxo-3′,4′-dihydro-1′H-spiro[piperidine-4,2′-quinoline]-1-carboxamide] | > 10 | 0.033
7 | O=C1CC2(CCN(C(=O)NCc3ccc(F)c(NCCO)c3)CC2)Nc2ccc(F)cc21 [Example 78, 6′-fluoro-N-(4-fluoro-3-((2-hydroxyethyl)amino)benzyl)-4′-oxo-3′,4′-dihydro-1′H-spiro[piperidine-4,2′-quinoline]-1-carboxamide] | > 10 | 0.321
8 | NC(=O)c1cc(CNC(=O)N2CCC3(CC2)CC(=O)c2cc(F)cc(F)c2N3)ccc1F [Example 11, N-(3-carbamoyl-4-fluorobenzyl)-6′,8′-difluoro-4′-oxo-3′,4′-dihydro-1′H-spiro[piperidine-4,2′-quinoline]-1-carboxamide] | > 10 | 0.023
9 | CCN1c2ccc(F)cc2C(=O)CC12CCN(C(=O)NCc1ccc(F)c(N)c1)CC2 [Example 29, N-(3-amino-4-fluorobenzyl)-1′-ethyl-6′-fluoro-4′-oxo-3′,4′-dihydro-1′H-spiro[piperidine-4,2′-quinoline]-1-carboxamide] | > 10 | 0.054
10 | CN1c2ccc(F)cc2C(=O)CC12CCN(C(=O)NCc1ccc(F)c(C(C)(C)O)c1)CC2 [Example 139, 6′-fluoro-N-(4-fluoro-3-(2-hydroxypropan-2-yl)benzyl)-1′-methyl-4′-oxo-3′,4′-dihydro-1′H-spiro[piperidine-4,2′-quinoline]-1-carboxamide] | 8.83 | 2.3
11 | CN1c2ccc(F)cc2C(=O)CC12CCN(C(=O)NCc1ccc(F)c(C(N)=O)c1)CC2 [Example 41, N-(3-carbamoyl-4-fluorobenzyl)-6′-fluoro-1′-methyl-4′-oxo-3′,4′-dihydro-1′H-spiro[piperidine-4,2′-quinoline]-1-carboxamide] | > 10 | 0.093
12 | Nc1c(F)ccc(CNC(=O)N2CCC3(CC2)CC(=O)c2cc(F)ccc2N3)c1F [Example 84, N-(3-amino-2,4-difluorobenzyl)-6′-fluoro-4′-oxo-3′,4′-dihydro-1′H-spiro[piperidine-4,2′-quinoline]-1-carboxamide] | > 10 | 0.367
